Source: article PMC9224473 (International Journal of Molecular Sciences, 2022)
Converted amounts (≈) assume the structure as drawn. Read-outs that look alike come from different tables or passages of the source.

Assays:
E. coli 510 = assay: MIC, broth microdilution, clinical strain; format: cell-based, Escherichia coli; conditions: 35 °C
S. aureus T 5591 = assay: MIC, broth microdilution, clinical strain; format: cell-based, Staphylococcus aureus; conditions: 35 °C
P. aeruginosa ATCC 15442 = assay: MIC, broth microdilution, standard strain; format: cell-based, Pseudomonas aeruginosa; conditions: 35 °C
S. aureus ATCC 25923 = assay: MIC, broth microdilution, standard strain; format: cell-based, Staphylococcus aureus; conditions: 35 °C
E. coli 600 = assay: MIC, broth microdilution, clinical strain; format: cell-based, Escherichia coli; conditions: 35 °C
P. aeruginosa 659 = assay: MIC, broth microdilution, clinical strain; format: cell-based, Pseudomonas aeruginosa
[1] = system: S. epidermidis ATCC 35984; assay: MIC, broth microdilution, standard strain; format: cell-based, Staphylococcus epidermidis; conditions: 35 °C
S. epidermidis KR 4243 = assay: MIC, broth microdilution, clinical strain; format: cell-based, Staphylococcus epidermidis; conditions: 35 °C
S. aureus ATCC 29213 = assay: MIC, broth microdilution, standard strain; format: cell-based, Staphylococcus aureus; conditions: 35 °C
S. pasteuri KR 4358 = assay: MIC, broth microdilution, clinical strain; format: cell-based, Staphylococcus pasteuri; conditions: 35 °C
[2] = system: S. epidermidis ATCC 12228; assay: MIC, broth microdilution, standard strain; format: cell-based, Staphylococcus epidermidis; conditions: 35 °C
E. coli 520 = assay: MIC, broth microdilution, clinical strain; format: cell-based, Escherichia coli; conditions: 35 °C
[3] = system: HaCaT (human immortal keratinocyte cell line); assay: MTT cytotoxicity assay; format: cell-based; conditions: 72 h, mean SD, read-out: IC50 HaCaT (normal cells)
Experimental: (§1) The human cell lines SW480 (primary colon cancer), SW620 (lymph node metastatic colon cancer from the same patient as primary cancer cells), HCT116 (colon carcinoma), HepG2 (liver cancer), and HaCaT (immortalized keratinocytes) were obtained from the American Type Culture Collection (ATCC, Rockville, MD, USA). The SW480, SW620 and HCT116 cells were grown in MEM (ThermoSci, Waltham, MA, USA), HepG2 and HaCaT in DMEM High Glucose (Biowest SAS, Nuaillé, France) supplemented with 10% foetal bovine serum (FBS), HEPES (20 mM), and antibiotics (100 U mL^−1 of Penicillin and 100 μg mL^−1 of Streptomycin). The cells were incubated in a humidified incubator at 37 °C/5% CO2, until 80–90% confluence was reached.
(§2) The cell viability was assessed by using of MTT salt [3-(4,5-dimethylthiazol-2-yl)-2,5-diphenyltetrazolium bromide] converted by mitochondrial dehydrogenase, occurring in living cells. The cells were seeded in 96-well plates at a density of 1 × 10^4 cells per well and allowed to adhere for 24 h at 37 °C in a CO2 humidified incubator. […]. The untreated cells were used as the control.
(§3) After 72 h incubation, the medium was replaced with 200 µL per well of free-serum medium containing 0.5 mg mL^−1 MTT and incubated for 4 h at 37 °C in a CO2 humidified incubator. Subsequently, the medium was removed and dimethyl sulfoxide (DMSO) with isopropanol (1:1) was added to dissolve the formazan crystals. The optical density was measured using UVM 340 reader (ASYS Hitech GmbH, Eugendorf, Austria) at a wavelength of 570 nm. The experiments were repeated three times. The cell viability was calculated as the percent of MTT reduced in treated cells versus control cells (untreated cells). The number of viable cells cultured without tested compounds was assumed as 100%. A decreased relative MTT level indicates decreased cell viability. The IC50 values were estimated using CompuSyn version 1.0.

[4] = system: SW480 (human primary colon cancer); assay: MTT cytotoxicity assay; format: cell-based; conditions: mean SD
Experimental: as §1, §2, §3

[5] = system: HepG2 (human liver cancer); assay: MTT cytotoxicity assay; format: cell-based; conditions: mean SD
Experimental: as §1, §2, §3

[6] = system: HCT116 (human colon cancer); assay: MTT cytotoxicity assay; format: cell-based; conditions: mean SD
Experimental: as §1, §2, §3

S. aureus ATCC 6538 = assay: MIC, broth microdilution, standard strain; format: cell-based, Staphylococcus aureus; conditions: 35 °C
S. aureus NCTC 4163 = assay: MIC, broth microdilution, standard strain; format: cell-based, Staphylococcus aureus; conditions: 35 °C
E. coli ATCC 25922 = assay: MIC, broth microdilution, standard strain; format: cell-based, Escherichia coli; conditions: 35 °C
S. aureus T 5595 = assay: MIC, broth microdilution, clinical strain; format: cell-based, Staphylococcus aureus; conditions: 35 °C
[7] = system: SW620 (human metastatic colon cancer); assay: MTT cytotoxicity assay; format: cell-based; conditions: mean SD
Experimental: as §1
The cell viability was assessed by using of MTT salt [3-(4,5-dimethylthiazol-2-yl)-2,5-diphenyltetrazolium bromide] converted by mitochondrial dehydrogenase, occurring in living cells. […] The untreated cells were used as the control.
as §3, with “Subsequently,” for “After 72 h incubation, the medium was replaced with 200 µL per well of free-serum medium containing 0.5 mg mL^−1 MTT and incubated for 4 h at 37 °C in a CO2 humidified incubator. Subsequently,”

For “1-cyclopropyl-6-fluoro-7-{4-[2-(2-isopropyl-5-methylphenoxy)acetyl]piperazin-1-yl}-4-oxo-1,4-dihydroquinoline-3-carboxylic acid [Compound 10]”, the “MIC E. coli 510” value (E. coli 510; 19 h) was greater than 256 mg/L, the “MIC S. aureus T 5591” value (S. aureus T 5591; 19 h) was 8 mg/L and the “MIC P. aeruginosa ATCC 15442” value (P. aeruginosa ATCC 15442; 19 h) was 256 mg/L. For the same compound, the “MIC S. aureus ATCC 25923” value (S. aureus ATCC 25923; 19 h) was 4 mg/L, the “MIC E. coli 600” value (E. coli 600; 19 h) was 64 mg/L and the “MIC P. aeruginosa 659” value (P. aeruginosa 659; 19 h, 35 °C) was 256 mg/L. The “MIC S. epidermidis ATCC 35984” value ([1]; 19 h) was 8 mg/L, the “MIC S. epidermidis KR 4243” value (S. epidermidis KR 4243; 19 h) was 16 mg/L and the “MIC S. aureus ATCC 29213” value (S. aureus ATCC 29213; 19 h) was 4 mg/L. The “MIC S. pasteuri KR 4358” value (S. pasteuri KR 4358; 19 h) was 16 mg/L, the “MIC S. epidermidis ATCC 12228” value ([2]; 19 h) was 8 mg/L and the “MIC E. coli 520” value (E. coli 520; 19 h) was 64 mg/L. The IC50 [3] was 37.1 ± 2.1 µM, the IC50 ([4]; 72 h) was 57.2 ± 2.7 µM and the IC50 ([5]; 72 h) was 26.1 ± 0.1 µM. The IC50 ([6]; 72 h) was greater than 100 µM, the “MIC S. aureus ATCC 6538” value (S. aureus ATCC 6538; 19 h) was 4 mg/L and the “MIC S. aureus NCTC 4163” value (S. aureus NCTC 4163; 19 h) was 4 mg/L. The “MIC E. coli ATCC 25922” value (E. coli ATCC 25922; 19 h) was 32 mg/L, the “MIC S. aureus T 5595” value (S. aureus T 5595; 19 h) was 8 mg/L and the IC50 ([7]; 72 h) was 59 ± 1.2 µM.
Compound `O=C(O)c1cn(C2CC2)c2cc(N3CCNCC3)c(F)cc2c1=O` [Ciprofloxacin, reference compound] has an IC50 ([3]; Homo sapiens, HaCaT) greater than 100 µM, an IC50 ([4]; Homo sapiens, SW480, 72 h) greater than 100 µM and an IC50 ([5]; Homo sapiens, HepG2, 72 h) greater than 100 µM. The IC50 ([6]; Homo sapiens, HCT-116, 72 h) was greater than 100 µM and the IC50 ([7]; Homo sapiens, SW-620, 72 h) was greater than 100 µM.
With `CC(C)[C@@H]1CC[C@@H](C)C[C@H]1OCC(=O)N1CCN(c2cc3c(cc2F)c(=O)c(C(=O)O)cn3C2CC2)CC1` [Compound 1, 1-cyclopropyl-6-fluoro-7-{4-[2-((1R,2S,5R)-2-isopropyl-5-methylcyclohexyloxy)acetyl]piperazin-1-yl}-4-oxo-1,4-dihydroquinoline-3-carboxylic acid] the MIC (E. coli 510; Escherichia coli, 510, 19 h) was greater than 256 mg/L, the MIC (S. aureus T 5591; Staphylococcus aureus, T5591, 19 h) was 4 mg/L (≈ 7.58 µM) and the MIC (P. aeruginosa ATCC 15442; Pseudomonas aeruginosa, ATCC15442, 19 h) was greater than 256 mg/L. It also gave an MIC (S. aureus ATCC 25923; Staphylococcus aureus, ATCC25923, 19 h) of 4 mg/L (≈ 7.58 µM), an MIC (E. coli 600; Escherichia coli, 600, 19 h) of 32 mg/L (≈ 60.6 µM) and an MIC (P. aeruginosa 659; Pseudomonas aeruginosa, 659, read-out: MIC P. aeruginosa 659, 19 h, 35 °C) greater than 256 mg/L. The MIC ([1]; Staphylococcus epidermidis, ATCC35984, 19 h) was 2 mg/L (≈ 3.79 µM), the MIC (S. epidermidis KR 4243; Staphylococcus epidermidis, KR4243, 19 h) was 8 mg/L (≈ 15.2 µM) and the MIC (S. aureus ATCC 29213; Staphylococcus aureus, ATCC29213, 19 h) was 4 mg/L (≈ 7.58 µM). It also gave an MIC (S. pasteuri KR 4358; Staphylococcus pasteuri, KR4358, 19 h) of 8 mg/L (≈ 15.2 µM), an MIC ([2]; Staphylococcus epidermidis, ATCC12228, 19 h) of 4 mg/L (≈ 7.58 µM) and an MIC (E. coli 520; Escherichia coli, 520, 19 h) of 32 mg/L (≈ 60.6 µM). The IC50 ([3]; Homo sapiens, HaCaT) was 21.7 ± 0.8 µM, the IC50 ([4]; Homo sapiens, SW480, 72 h) was 39.9 ± 4.5 µM and the IC50 ([5]; Homo sapiens, HepG2, 72 h) was 23.1 ± 0.2 µM. For the same compound, the IC50 ([6]; Homo sapiens, HCT-116, 72 h) was 34.9 ± 1.4 µM, the MIC (S. aureus ATCC 6538; Staphylococcus aureus, ATCC6538, 19 h) was 4 mg/L (≈ 7.58 µM) and the MIC (S. aureus NCTC 4163; Staphylococcus aureus, NCTC4163, 19 h) was 2 mg/L (≈ 3.79 µM). It also gave an MIC (E. coli ATCC 25922; Escherichia coli, ATCC25922, 19 h) of 32 mg/L (≈ 60.6 µM), an MIC (S. aureus T 5595; Staphylococcus aureus, T5595, 19 h) of 8 mg/L (≈ 15.2 µM) and an IC50 ([7]; Homo sapiens, SW-620, 72 h) of 28.1 ± 2.1 µM.
